Source: US20240270809A1, “ORAL GLP RECEPTOR AGONISTS” (priority 2020, published 2024)
Positions of bridges follow the written chain, without caps; N, C: chain ends. Non-standard residues stand in square brackets, D forms with d. Residues, ends and D or L forms follow the SMILES beside them. *: point of attachment. Malonyl(2,2-Me2,histaminyl) = CC(C)(C(=O)NCCc1cnc[nH]1)C(=O)*; Ala(1H-tetrazol-5-yl) = N[C@@H](Cc1nnn[nH]1)C(=O)O; αMeL = CC(C)C[C@](C)(N)C(=O)O; Nle = CCCC[C@H](N)C(=O)O; Aib = CC(C)(N)C(=O)O

Tests used:
human GLP1 receptor = biological target: T1, human GLP1 receptor (Homo sapiens, UniProt P43220); experiment: cAMP accumulation assay, functional agonism of human GLP1 receptor; assay type: cell-based; details: HEK cells infected with human GLP1 receptor BacMam virus, HTRF cAMP; for Emax: HEK293, read-out: Human GLP-1R agonist cAMP Emax; for EC50: read-out: Human GLP-1R agonist cAMP pEC50 (converted)
T1 construct: expressed in transfected cells; host or cells: HEK cells, BacMam virus transduction
T1 sequence (P43220 24-463): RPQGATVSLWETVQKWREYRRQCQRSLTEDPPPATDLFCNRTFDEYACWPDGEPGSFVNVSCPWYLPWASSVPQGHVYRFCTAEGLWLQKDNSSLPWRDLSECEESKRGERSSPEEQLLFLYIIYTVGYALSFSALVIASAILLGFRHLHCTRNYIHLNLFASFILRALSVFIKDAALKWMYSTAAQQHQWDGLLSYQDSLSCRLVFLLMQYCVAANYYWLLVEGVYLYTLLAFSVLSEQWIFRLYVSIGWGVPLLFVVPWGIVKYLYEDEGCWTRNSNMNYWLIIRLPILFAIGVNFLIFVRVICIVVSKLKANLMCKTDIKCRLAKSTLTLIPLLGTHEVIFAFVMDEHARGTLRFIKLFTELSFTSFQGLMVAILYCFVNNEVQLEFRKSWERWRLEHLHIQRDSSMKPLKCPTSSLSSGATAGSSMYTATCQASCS
Description: (§1) CAMP production upon agonist stimulation of human GLP2 or GLP1 receptor was assessed utilizing HiRange cAMP kit (Cisbio). In brief, HEK cells were infected with either human GLP2 or GLP1 receptor BacMam virus for 24 hours and frozen for later use in the assay. […] Cells were prepared in the assay buffer (HBSS (Lonza) supplemented with 0.5 mM IBMX (Tocris)). After 45 min incubation at 37° C., the reaction was stopped by addition of the HTRF detection reagents in the lysis buffer provided in the kit.

human GLP2 receptor = biological target: T2, human GLP2 receptor (Homo sapiens, UniProt O95838); experiment: cAMP accumulation assay, functional agonism of human GLP2 receptor; assay type: cell-based; details: HEK cells infected with human GLP2 receptor BacMam virus, HTRF cAMP; for Emax: HEK293, read-out: Human GLP-2R agonist cAMP Emax; for EC50: read-out: Human GLP-2R agonist cAMP pEC50 (converted)
T2 construct: expressed in transfected cells; host or cells: HEK cells, BacMam virus transduction
T2 sequence (O95838 1-553): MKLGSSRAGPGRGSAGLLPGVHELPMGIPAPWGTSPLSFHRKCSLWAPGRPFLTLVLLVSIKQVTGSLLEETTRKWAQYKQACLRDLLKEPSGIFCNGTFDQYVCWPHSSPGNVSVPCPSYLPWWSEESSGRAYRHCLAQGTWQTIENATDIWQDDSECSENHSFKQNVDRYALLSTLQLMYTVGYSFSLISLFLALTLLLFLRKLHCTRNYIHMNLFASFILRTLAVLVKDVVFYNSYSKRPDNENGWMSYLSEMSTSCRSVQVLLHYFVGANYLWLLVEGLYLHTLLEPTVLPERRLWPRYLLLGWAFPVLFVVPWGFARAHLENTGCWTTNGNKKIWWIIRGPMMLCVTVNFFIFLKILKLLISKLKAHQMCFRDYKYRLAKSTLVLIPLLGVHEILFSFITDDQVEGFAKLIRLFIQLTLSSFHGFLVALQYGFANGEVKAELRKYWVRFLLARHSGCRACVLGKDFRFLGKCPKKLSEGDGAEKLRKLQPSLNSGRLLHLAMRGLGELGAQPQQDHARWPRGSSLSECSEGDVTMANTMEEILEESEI
Description: as §1

Row | SMILES | Emax (human GLP1 receptor) [%] | EC50 (human GLP1 receptor) [nM] | Emax (human GLP2 receptor) [%] | EC50 (human GLP2 receptor) [nM]
1 | CCCC[C@H](NC(=O)[C@H](CCC(=O)O)NC(=O)[C@@H]1CC(=O)NCCCC[C@H](NC(=O)[C@H](CCC(N)=O)NC(=O)C(C)(C)NC(=O)[C@@H](N)Cc2c[nH]cn2)C(=O)N[C@@H](CO)C(=O)N[C@@H](Cc2ccccc2)C(=O)N[C@@H](CO)C(=O)N1)C(=O)N[C@H](Cc1ccccc1)C(=O)N[C@H](C(=O)N[C@@](C)(CC(C)C)C(=O)N[C@@H](CC(C)C)C(=O)N[C@@H](CC(=O)O)C(=O)N[C@H]1CCC(=O)NCCCC[C@@H](C(=O)N[C@@H](CC(=O)O)C(=O)N[C@@H](Cc2ccccc2)C(=O)N[C@H](C(=O)N[C@H]2CCC(=O)NCCCC[C@@H](C(=O)N[C@H]3CCC(=O)NCCCC[C@@H](C(N)=O)NC(=O)[C@H]([C@@H](C)O)NC(=O)[C@H]([C@@H](C)CC)NC(=O)[C@H](CCCCN)NC3=O)NC(=O)[C@H]([C@@H](C)CC)NC(=O)[C@H](CC(C)C)NC(=O)[C@H](Cc3c[nH]c4ccccc34)NC2=O)[C@@H](C)CC)NC(=O)[C@H](C)NC(=O)[C@H](C)NC(=O)[C@H](CCCCN)NC1=O)[C@@H](C)O [Example 63] (H-H[Aib]QKSFSDE[Nle][dF]T[αMeL]LDEKAAKDFIEWLIKEKITK-NH2; lactam 4-8, 16-20, 24-28, 29-33 (inferred); C-terminus assumed) | 96.9 | 1 | 99.7 | 0.1
2 | CCCC[C@H](NC(=O)[C@H](CCC(=O)O)NC(=O)[C@@H]1CC(=O)NCCCC[C@H](NC(=O)[C@H](CC(=O)O)NC(=O)C(C)(C)C(=O)NCCc2c[nH]cn2)C(=O)N[C@@H](CO)C(=O)N[C@@H](Cc2ccccc2)C(=O)N[C@@H](CO)C(=O)N1)C(=O)N[C@H](Cc1ccccc1)C(=O)N[C@H](C(=O)N[C@@](C)(CC(C)C)C(=O)N[C@@H](CC(C)C)C(=O)N[C@@H](CC(=O)O)C(=O)N[C@H]1CCC(=O)NCCCC[C@@H](C(=O)N[C@@H](CC(=O)O)C(=O)N[C@@H](Cc2ccccc2)C(=O)N[C@H](C(=O)N[C@H]2CCC(=O)NCCCC[C@@H](C(=O)N[C@H]3CCC(=O)NCCCC[C@@H](C(N)=O)NC(=O)[C@H]([C@@H](C)O)NC(=O)[C@H]([C@@H](C)CC)NC(=O)[C@H](CCCCN)NC3=O)NC(=O)[C@H]([C@@H](C)CC)NC(=O)[C@H](CC(C)C)NC(=O)[C@H](Cc3c[nH]c4ccccc34)NC2=O)[C@@H](C)CC)NC(=O)[C@H](C)NC(=O)[C@H](C)NC(=O)[C@H](CCCCN)NC1=O)[C@@H](C)O [Example 68] ({Malonyl(2,2-Me2,histaminyl)}-DKSFSDE[Nle][dF]T[αMeL]LDEKAAKDFIEWLIKEKITK-NH2; lactam 2-6, 14-18, 22-26, 27-31 (inferred); C-terminus assumed) | 94 | 0.316 | 103 | 0.0794
3 | CCCC[C@H](NC(=O)[C@H](CCC(=O)O)NC(=O)[C@@H]1CC(=O)NCCCC[C@H](NC(=O)[C@H](CCC(N)=O)NC(=O)C(C)(C)C(=O)NCCc2c[nH]cn2)C(=O)N[C@@H](CO)C(=O)N[C@@H](Cc2ccccc2)C(=O)N[C@@H](CO)C(=O)N1)C(=O)N[C@H](Cc1ccccc1)C(=O)N[C@H](C(=O)N[C@@](C)(CC(C)C)C(=O)N[C@@H](CC(C)C)C(=O)N[C@@H](CC(=O)O)C(=O)N[C@H]1CCC(=O)NCCCC[C@@H](C(=O)N[C@@H](CC(=O)O)C(=O)N[C@@H](Cc2ccccc2)C(=O)N[C@H](C(=O)N[C@H]2CCC(=O)NCCCC[C@@H](C(=O)N[C@H]3CCC(=O)NCCCC[C@@H](C(N)=O)NC(=O)[C@H]([C@@H](C)O)NC(=O)[C@H]([C@@H](C)CC)NC(=O)[C@H](CCCCN)NC3=O)NC(=O)[C@H]([C@@H](C)CC)NC(=O)[C@H](CC(C)C)NC(=O)[C@H](Cc3c[nH]c4ccccc34)NC2=O)[C@@H](C)CC)NC(=O)[C@H](C)NC(=O)[C@H](C)NC(=O)[C@H](CCCCN)NC1=O)[C@@H](C)O [Example 69] ({Malonyl(2,2-Me2,histaminyl)}-QKSFSDE[Nle][dF]T[αMeL]LDEKAAKDFIEWLIKEKITK-NH2; lactam 2-6, 14-18, 22-26, 27-31 (inferred); C-terminus assumed) | 83.7 | 6.31 | 95 | 0.501

More lines, now with the values ahead:

Row | Emax (human GLP1 receptor) [%] | EC50 (human GLP1 receptor) [nM] | Emax (human GLP2 receptor) [%] | EC50 (human GLP2 receptor) [nM] | SMILES
4 | 64.1 | 3.98 | 99.9 | 0.2 | CCCC[C@@H]1NC(=O)[C@H](CCC(=O)O)NC(=O)[C@H](CC(=O)O)NC(=O)[C@@H](NC(=O)[C@H](Cc2ccccc2)NC(=O)[C@H](CO)NC(=O)CNC(=O)[C@H](Cc2nn[nH]n2)NC(=O)C(C)(C)C(=O)NCCc2c[nH]cn2)CCC(=O)NCCCC[C@@H](C(=O)N[C@H]2CCC(=O)NCCCC[C@@H](C(=O)N[C@H]3CCC(=O)NCCCC[C@@H](C(=O)N[C@@H](CC(=O)O)C(=O)N[C@@H](Cc4ccccc4)C(=O)N[C@H](C(=O)N[C@H]4CCC(=O)NCCCC[C@@H](C(=O)N[C@H]5CCCCNC(=O)CC[C@@H](C(N)=O)NC(=O)[C@H]([C@@H](C)O)NC(=O)[C@H]([C@@H](C)CC)NC(=O)[C@H](CCCCN)NC5=O)NC(=O)[C@H]([C@@H](C)CC)NC(=O)[C@H](CC(C)C)NC(=O)[C@H](Cc5c[nH]c6ccccc56)NC4=O)[C@@H](C)CC)NC(=O)[C@H](C)NC(=O)[C@H](C)NC3=O)NC(=O)[C@H](CC(=O)O)NC(=O)[C@H](CC(C)C)NC(=O)[C@H]([C@@H](C)CC)NC2=O)NC1=O [Example 80]
5 | 56.1 | 3.16 | 91.6 | 0.631 | CCCC[C@@H]1NC(=O)[C@H](CCC(=O)O)NC(=O)[C@H](CC(=O)O)NC(=O)[C@@H](NC(=O)[C@H](Cc2ccccc2)NC(=O)[C@H](CO)NC(=O)CNC(=O)[C@H](Cc2nn[nH]n2)NC(=O)C(C)(C)C(=O)NCCc2c[nH]cn2)CCC(=O)NCCCC[C@@H](C(=O)N[C@H]2CCC(=O)NCCCC[C@@H](C(=O)N[C@H]3CCCCNC(=O)C[C@@H](C(=O)N[C@@H](Cc4ccccc4)C(=O)N[C@H](C(=O)N[C@H]4CCC(=O)NCCCC[C@@H](C(=O)N[C@H]5CCCCNC(=O)CC[C@@H](C(N)=O)NC(=O)[C@H]([C@@H](C)O)NC(=O)[C@H]([C@@H](C)CC)NC(=O)[C@H](CCCCN)NC5=O)NC(=O)[C@H]([C@@H](C)CC)NC(=O)[C@H](CC(C)C)NC(=O)[C@H](Cc5c[nH]c6ccccc56)NC4=O)[C@@H](C)CC)NC(=O)[C@H](CCCCN)NC(=O)[C@H](C)NC(=O)[C@H](C)NC3=O)NC(=O)[C@H](CC(=O)O)NC(=O)[C@H](CC(C)C)NC(=O)[C@H]([C@@H](C)CC)NC2=O)NC1=O [Example 81] ({Malonyl(2,2-Me2,histaminyl)}-[Ala(1H-tetrazol-5-yl)]GSFEDE[Nle]KEILDKKAAKDFIEWLIKKKITE-NH2; lactam 5-9, 10-14, 15-19, 22-26, 27-31; C-terminus assumed)
6 | 94.5 | 12.6 | 104 | 0.0794 | CCCC[C@@H]1NC(=O)[C@H](CCC(=O)O)NC(=O)[C@@H](NC(=O)[C@H](CO)NC(=O)[C@H](Cc2ccccc2)NC(=O)[C@H](CO)NC(=O)CNC(=O)[C@H](Cc2nn[nH]n2)NC(=O)C(C)(C)C(=O)NCCc2c[nH]cn2)CCCCNC(=O)C[C@@H](C(=O)N[C@H](C(=O)N[C@@H](CC(C)C)C(=O)N[C@@H](CC(=O)O)C(=O)N[C@@H](CC(C)C)C(=O)N[C@@H](CCCCN)C(=O)N[C@@H](C)C(=O)N[C@@H](C)C(=O)N[C@@H](CCCCN)C(=O)N[C@@H](CC(=O)O)C(=O)N[C@@H](Cc2ccccc2)C(=O)N[C@H](C(=O)N[C@@H](CC(N)=O)C(=O)N[C@@H](Cc2c[nH]c3ccccc23)C(=O)N[C@@H](CC(C)C)C(=O)N[C@H](C(=O)N[C@@H](CCC(N)=O)C(=O)N[C@H](C(=O)N[C@@H](CCCCN)C(=O)N[C@H](C(=O)N[C@H](C(=O)N[C@@H](Cc2ccccc2)C(N)=O)[C@@H](C)O)[C@@H](C)CC)[C@@H](C)O)[C@@H](C)CC)[C@@H](C)CC)[C@@H](C)CC)NC(=O)[C@@H](Cc2ccccc2)NC1=O [Example 82] ({Malonyl(2,2-Me2,histaminyl)}-[Ala(1H-tetrazol-5-yl)]GSFSKE[Nle][dF]DILDLKAAKDFINWLIQTKITF-NH2; lactam 6-10 (inferred); C-terminus assumed)
